Data reported in PMC5723347, “Silencing of D-Lactate Dehydrogenase Impedes Glyoxalase System and Leads to Methylglyoxal Accumulation and Growth Inhibition in Rice” (Frontiers in Plant Science, 2017).
Where two headings read alike, the source gives them in different places.

Test system: T1, OsD-LDH-FL
T1 construct: full-length 561 residues including mitochondrial targeting peptide, N-terminal GST tag kept (pGEX-6P-1), 87 kDa fusion, expressed in E. coli BL21 (DE3)
Test: spectrophotometric cytochrome c reduction at […] nm, Hanes-Woolf
Assay type: biochemical, Oryza sativa subsp. indica
Details: 200 μM cytochrome c as electron acceptor, pH 8.35, 30°C, 50 mM potassium phosphate

SMILES | Km (read-out: D-2-HB / KM) [µM] | Km (read-out: D-LACTATE / KM) [µM]
CC[C@@H](O)C(=O)O [D-2-hydroxybutyrate] | 11 ± 0.34 | 
C[C@@H](O)C(=O)O [D-lactate] |  | 41.4 ± 2.93
